Measurements: patent US20100047762A1, “METHOD TO MONITOR DRUG EFFICACY IN DIABETIC PATIENTS USING AN ASSAY FOR 1,5-ANHYDRO-D-GLUCITOL” (NIPPON KAYAKU KABUSHIKI KAISHA, priority 2007, published 2010)

Tests used:
[1] = tested on: patients with type I diabetes (T1DM); assay: Post-hoc analysis of randomized, double-blind, placebo-controlled study of pramlintide in T1DM subjects on intensive insulin therapy (baseline HbA1c≦8%); format: in vivo, human
Description: 1,5-AG was assessed as a marker of post-prandial blood glucose (PPG) control in pramlintide-treated patients with type I diabetes (TIDM). PPG is the glucose that appears in the blood stream and tissues after a meal. PPG predominates in the serum over average fasting glucose at HbA1c's less than 8.5%. Antihyperglycemic drugs affect PPG.
Post-hoc analysis of a randomized, double-blind, placebo-controlled study of a subset of subjects with T1DM on intensive insulin therapy with a baseline HbA1c≦8% (N=37, age 40±12 y; HbA1c 7.5±0.3%; weight 85.9±20.8 kg; mean±SD) treated with pramlintide (30/60 μg) or placebo with major meals.
• HbA1c, weight, and insulin dose measured at scheduled visits • Pre-prandial and post-prandial self-monitored blood glucose (SMBG) daily • Plasma 1,5-AG (GlycoMark assay) measured at baseline and week 29
• All evaluable subjects with a baseline HbA1c≦8% and 1,5-AG measured at baseline and week 29 • Mean (±SE) change from baseline HbA1c, body weight, PPG, insulin use and 1,5-AG at week 29 • A repeated measures analysis across all study visits was performed comparing pramlintide and placebo groups

[2] = following a meal; cited from earlier work

CC[C@H](C)[C@H](NC(=O)[C@@H]1CCCN1C(=O)CNC(=O)[C@H](Cc1ccccc1)NC(=O)[C@H](CC(N)=O)NC(=O)[C@H](CC(N)=O)NC(=O)[C@H](CO)NC(=O)[C@H](CO)NC(=O)[C@H](Cc1c[nH]cn1)NC(=O)[C@@H](NC(=O)[C@H](CC(C)C)NC(=O)[C@H](Cc1ccccc1)NC(=O)[C@H](CC(N)=O)NC(=O)[C@H](C)NC(=O)[C@H](CC(C)C)NC(=O)[C@H](CCCNC(=N)N)NC(=O)[C@H](CCC(N)=O)NC(=O)[C@@H](NC(=O)[C@H](C)NC(=O)[C@@H]1CSSC[C@H](NC(=O)[C@@H](N)CCCCN)C(=O)N[C@@H](CC(N)=O)C(=O)N[C@@H]([C@@H](C)O)C(=O)N[C@@H](C)C(=O)N[C@@H]([C@@H](C)O)C(=O)N1)[C@@H](C)O)C(C)C)C(=O)N[C@@H](CC(C)C)C(=O)N1CCC[C@H]1C(=O)N1CCC[C@H]1C(=O)N[C@H](C(=O)N[C@@H](CC(N)=O)C(=O)N[C@H](C(=O)NCC(=O)N[C@@H](CO)C(=O)N[C@@H](CC(N)=O)C(=O)N[C@H](C(=O)N[C@@H](Cc1ccc(O)cc1)C(N)=O)[C@@H](C)O)C(C)C)[C@@H](C)O [Pramlintide, L-Lysyl-L-cysteinyl-L-asparaginyl-L-threonyl-L-alanyl-L-threonyl-L-cysteinyl-L-alanyl-L-threonyl-L-glutaminyl-L-arginyl-L-leucyl-L-alanyl-L-asparaginyl-L-phenylalanyl-L-leucyl-L-valyl-L-histidyl-L-seryl-L-seryl-L-asparaginyl-L-phenylalanyl-glycyl-L-protyl-L-isoleucyl-L-leucyl-L-protyl-L-threonyl-L-asparaginyl-L-valyl-L-glycyl-L-seryl-L-prollneamylin (human) acetate hydrate]
Body Weight, % Change from baseline ([1]; 4 weeks): −0.7% | Body Weight, Mean ([1]; 4 weeks): 84.2 kg | HbA1c, % Change from baseline ([1]; 4 weeks): −7.4% | PPG, % Change from baseline ([1]; 4 weeks): −18.9% | PPG, Mean ([1]; 4 weeks): 143 mg/dL | HbA1c, Mean ([1]; 4 weeks, n = 18): 7.0% | Plasma 1,5-AG, % Change from baseline ([1]; 4 weeks, pramlintide 30/60 μg with major meals): 15.9% | Plasma 1,5-AG, Mean ([1]; 4 weeks, pramlintide 30/60 μg with major meals, n = 18): 6.4 µg/mL | Body Weight, % Change from baseline ([1]; 16 weeks): −2.8% | Body Weight, Mean ([1]; 16 weeks): 82.5 kg | HbA1c, % Change from baseline ([1]; 16 weeks): −7.0% | PPG, % Change from baseline ([1]; 16 weeks): −16.8% | PPG, Mean ([1]; 16 weeks): 145 mg/dL | Plasma 1,5-AG, % Change from baseline ([1]; 16 weeks): 23.4% | HbA1c, Mean ([1]; 16 weeks, n = 16): 7.2% | Plasma 1,5-AG, Mean ([1]; 16 weeks, n = 17): 7 µg/mL | Body Weight, % Change from baseline ([1]; 29 weeks): −2.2% | Body Weight, Mean ([1]; 29 weeks): 83.0 kg | HbA1c, % Change from baseline ([1]; 29 weeks): −4.5% | PPG, % Change from baseline ([1]; 29 weeks): −27.2% | PPG, Mean ([1]; 29 weeks): 135 mg/dL | Plasma 1,5-AG, % Change from baseline ([1]; 29 weeks): 29.8% | most common adverse event associated with pramlintide use ([1]; 29 weeks of treatment): mild to moderate nausea | HbA1c, Mean ([1]; 29 weeks, n = 18): 7.4% | Plasma 1,5-AG, Mean ([1]; 29 weeks, n = 18): 6.9 µg/mL | fasting plasma 1,5-AG levels, relative change from baseline ([1]; baseline to wk 29, mean±SE, P<0.01 vs placebo): +30±16% | fasting plasma 1,5-AG levels, absolute change from baseline ([1]; baseline to wk 29, mean±SE, P<0.05 vs placebo): +0.96±0.91 μg/mL | mealtime insulin use ([1]; week 29, pramlintide-treated subjects): significantly decreased | 2 hr PPG excursions, change from baseline ([1]; week 29, n=18, mean±SE, P<0.001 vs placebo): -43.9 ± 10.9 mg/dL | body weight, change from baseline ([1]; week 29, n=18, mean±SE, P<0.01 vs placebo): -2.0 ± 1.2 kg | HbA1c, change from baseline ([1]; week 29, n=18, mean±SE, similar to placebo): −0.18±0.31% | duration of the slowing of gastric emptying following Pramlintide administration [2]: approximately 3 hours
